Assay type in all cases: functional
Experiment [1] relates to Oncopeltus fasciatus. Nature of the experiment: Morphogenetic activity against fourth-instar nymphs of Oncopeltus fasciatus assessed as occurrence of precocious metamorphosis at 3 ug/cm'2.
The test system of experiment [2] is Pieris brassicae. Nature of the experiment: Insecticidal activity against fourth-instar larvae of Pieris brassicae assessed as mortality per insect after 5 days.
The test system of experiment [3] is Oncopeltus fasciatus. Nature of the experiment: Morphogenetic activity against third-instar nymphs of Oncopeltus fasciatus assessed as occurrence of precocious metamorphosis at 3 ug/cm'2.
In experiment [4] the test system is Oncopeltus fasciatus. Nature of the experiment: Morphogenetic activity against second-instar nymphs of Oncopeltus fasciatus assessed as mortality at 3 ug/cm'2.
Experiment [5] deals with Oncopeltus fasciatus. Nature of the experiment: Morphogenetic activity against fifth-instar nymphs of Oncopeltus fasciatus assessed as occurrence of precocious metamorphosis at 3 ug/cm'2.

With `CCOc1c(OC)cc2c(c1C)C=CC(C)(C)O2`, the Activity in experiment [1] came to 37.5%; in experiment [3] it was 0%; in experiment [4] it was 52.5%. Besides, the LD50 in experiment [2] was 71 µg.

With `COc1c(OC2CCCC2)cc2c(c1C)C=CC(C)(C)O2`, in experiment [2], the LD50 turned out to be 22.4 µg. Besides, the Activity is 0% in experiment [3] and 52.5% in experiment [4].

Take `CCC(C)Oc1cc2c(c(C)c1OC)C=CC(C)(C)O2` (configuration not stated): the Activity in experiment [1] is 0%; in experiment [3], 0%; in experiment [4], 47.5%; in experiment [5], 37.5%. Further, in experiment [2], the LD50 worked out at 20 µg.

Consider `C#CCOc1cc2c(c(C)c1OC)C=CC(C)(C)O2`, for which the Activity stood at 0% in experiment [1], 0% in experiment [3], 30% in experiment [4] and 20% in experiment [5]. The LD50 in experiment [2] amounted to 29.9 µg.

As for `CCCOc1cc2c(c(C)c1OC)C=CC(C)(C)O2`, the Activity in experiment [1] was 80%; in experiment [3], 0%; in experiment [4], 15%; in experiment [5], 0%. In experiment [2], the LD50 came out at 32.7 µg.

For `CCOc1cc2c(cc1OC)C=CC(C)(C)O2`, the Activity in experiment [1] worked out at 5%; in experiment [3], 60%; in experiment [4], 20%; in experiment [5], 15%. The LD50 in experiment [2] was determined as 24.5 µg.

On to `COc1cc2c(c(C)c1OC)C=CC(C)(C)O2`, for which the Activity in experiment [1] is given as 45%; in experiment [3] it was 25%; in experiment [4], 30%; in experiment [5], 0%. Moreover, in experiment [2], the LD50 worked out at 96.5 µg.

For the compound `CCOc1cc2c(c(C)c1OC)C=CC(C)(C)O2`, the Activity in experiment [1] is recorded as 95%; in experiment [3] it was 0%; in experiment [4], 5%; in experiment [5] it was 0%. Further, the LD50 in experiment [2] came out at 88.3 µg.

As for `COc1cc2c(cc1OC)OC(C)(C)C=C2` [PROCOCENE II], the Activity in experiment [1] stood at 27.5%; in experiment [3], 22.5%; in experiment [4], 45%; in experiment [5], 5%. The LD50 in experiment [2] is 39.5 µg.

The values are drawn from ChEMBL document CHEMBL3044804, “Morphogenetic and Toxic Activity of Seven Novel 2, 2-Dimethylchromene Derivatives on Larvae of Oncopeltus fasciatus and Pieris brassicae” (1991).
